# Test results: BindingDB's records for doi:10.1016/j.ejmech.2016.06.026 (Czech Academy of Sciences, 2016)
# What was measured:
# [1] = Inhibition of reverse transcriptase Y181C mutant in HIV-1 3B infected in human MT4 cells assessed as inhibition of viral replication after 5 days by cell titer glo based luciferase reporter gene assay
# [2] = Inhibition of HIV-1 3B reverse transcriptase K103N mutant infected in human MT4 cells assessed as inhibition of viral replication after 5 days by cell titer glo based luciferase reporter gene assay
smiles,measurement,setting,value
COc1cc(F)c(C(=O)c2ccnc(Nc3ccc(C#N)cc3)n2)c(F)c1,EC50,[1],> 500 nM
same,EC50,[2],347 nM
